Data set [1] deals with L. donovani promastigotes. The data set is described as follows: In vitro potency. The format is cell-based. The note with it: Leishmania donovani, 72 h, read-out: IC50 against L. donovani promastigotes.
Data set [2] in a line: In vitro preliminary safety assessment: cytotoxicity on THP-1 cells. The format is cell-based. The note with it: human, PMA-treated THP-1 monocytic cells.

Our source for the IC50 and CC50 values is publication PMC10312039 (Journal of Enzyme Inhibition and Medicinal Chemistry, 2023).

A word on the IC50: it is the concentration needed to halve the response being measured. Regarding `CCCCCCCCCCCCCCCCOP(=O)([O-])OCC[N+](C)(C)C` [Miltefosine], in data set [1], the IC50 was found to be 3.5 µM. As a reminder, the CC50 is the concentration that lowers cell viability or growth by half. Higher therefore signals lower toxicity to the cells. In the case of `CCCCCCCC/C=C\CCCCCCCCCCCCOP(=O)([O-])OCC[N+](C)(C)C` [Erufosine], the IC50 in data set [1] worked out at 9.8 µM. This molecule also gave a CC50 at 72 h in data set [2] of 19.4 µM.
